Measurements reported in publication PMC3702509, “Label Free Fragment Screening Using Surface Plasmon Resonance as a Tool for Fragment Finding – Analyzing Parkin, a Difficult CNS Target” (PLoS ONE, 2013).

Key:
[1] = biological target: T1, FL-FLAG-Parkin RT (non-thermal treated) (Homo sapiens, UniProt O60260); assay: SPR kinetics/affinity on non-thermal treated FL-FLAG Parkin captured by anti-FLAG antibody; format: binding; conditions: for direct binding of reducing agent by SPR: non-thermal treated Parkin
T1 construct: the entire coding region (residues 1–465) from NM_004562.1 was cloned into pFastBac; made in house; host or cells: Sf9 or Sf21 insect cells (baculovirus)
T1 sequence (O60260 1-465): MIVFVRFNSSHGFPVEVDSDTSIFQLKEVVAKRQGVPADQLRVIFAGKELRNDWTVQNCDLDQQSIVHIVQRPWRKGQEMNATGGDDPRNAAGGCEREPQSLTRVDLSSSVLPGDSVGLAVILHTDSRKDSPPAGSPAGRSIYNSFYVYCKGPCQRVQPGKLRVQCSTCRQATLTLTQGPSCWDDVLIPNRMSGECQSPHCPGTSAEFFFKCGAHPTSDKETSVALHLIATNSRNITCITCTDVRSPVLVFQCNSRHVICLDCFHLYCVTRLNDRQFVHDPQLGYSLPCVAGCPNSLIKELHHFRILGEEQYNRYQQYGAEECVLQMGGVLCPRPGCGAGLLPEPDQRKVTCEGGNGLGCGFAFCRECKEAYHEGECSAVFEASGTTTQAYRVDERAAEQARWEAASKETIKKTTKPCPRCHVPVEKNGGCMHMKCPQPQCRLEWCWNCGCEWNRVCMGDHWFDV
Protocol: Kinetics and Affinity measurements were performed on a GE Healthcare Biacore T100 or T200 instrument. Anti-FLAG antibody M2 was immobilized on a CM5 sensor chip using standard amine coupling procedure at a concentration of 100 μg/ml to a level of 10000 response units (RU). […] Flow cell 2 contained antibody only to control for non-specific binding of fragments to the antibody, and flow cells 3 and 4 contained antibody and captured Parkin. Untagged Parkin domain R0RBR was immobilized by amine coupling at a concentration of 100 μg/ml in 10 mM acetic acid pH 5.0 using the same running buffer as for anti-FLAG antibody immobilization. […]
(§1) The flow rate was 30μl/min. The time-dependent binding curves were monitored simultaneously. The surfaces were then regenerated after each binding experiment by washing the surfaces with an injection of running buffer. Kinetics and affinity experiments were repeated at least twice at two different test occasions.
(§2) Kinetic and affinity data were solvent corrected (fragments only), reference subtracted and blank subtracted using the Biacore T200 evaluation software V.1. Kinetic constants were determined by curve fitting using a 1∶1 binding model. Association and dissociation curves were fitted globally or locally. The rate of complex formation (1∶1 interaction) during fragment injection was calculated according to the equation (2): [drawing 2] (2) where R is the SPR signal in response units (RU), C is the concentration of analyte, Rmax is the maximum analyte binding capacity in RU, dR/dt is the rate of SPR signal change. To determine the association constant ka between fragment and protein, the early binding phase was used. The dissociation phase kd was measured using the rate of decline in RU after the injection stop, when free running buffer is flowing over the surface. Data were simultaneously fitted by the software and the dissociation constant KD calculated using equation (3). [drawing 3] (3) Ligand efficiency (LE, Δg) was calculated as the binding energy of ligand per atom (equation 4) [drawing 4] (4) where Nh is the number of heavy (i.e., non-hydrogen) atoms in the ligand.
The dissociation half-life (t1/2) was calculated by equation (5). [drawing 5] (5)

R0RBR Domain RT = biological target: T2, R0RBR Domain RT (Homo sapiens, UniProt O60260); assay: SPR kinetics/affinity on amine-coupled Parkin R0RBR domain; format: binding; conditions: read-out: Affinities KD of protein ligands
T2 construct: DNA encoding residues 141–465 of Parkin (NM_004562.1) were cloned into the Champion pET SUMO vector; SUMO (His-SUMO of the Champion pET SUMO vector) (N, cleaved yes); made in house; host or cells: E. coli BL21 DE3
T2 sequence (O60260 141-465): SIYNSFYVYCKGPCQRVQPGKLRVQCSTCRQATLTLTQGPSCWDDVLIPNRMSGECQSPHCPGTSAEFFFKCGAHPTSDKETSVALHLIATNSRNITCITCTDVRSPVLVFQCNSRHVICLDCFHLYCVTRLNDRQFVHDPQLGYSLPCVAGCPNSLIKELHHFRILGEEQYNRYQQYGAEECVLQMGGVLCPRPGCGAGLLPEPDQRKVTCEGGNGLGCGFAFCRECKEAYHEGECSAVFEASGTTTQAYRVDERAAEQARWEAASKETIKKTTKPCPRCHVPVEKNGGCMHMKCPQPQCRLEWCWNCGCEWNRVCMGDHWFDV
Protocol: Kinetics and Affinity measurements were performed on a GE Healthcare Biacore T100 or T200 instrument. Anti-FLAG antibody M2 was immobilized on a CM5 sensor chip using standard amine coupling procedure at a concentration of 100 μg/ml to a level of 10000 response units (RU). Monomeric non-thermal treated FL-Parkin or thermal treated FL-Parkin was captured in 10 mM acetic acid pH 4.5 to levels of up to 16000 RU. The running buffer for both methods was 10 mM HEPES pH 7.4, 150 mM NaCl, 0.005% Tween-20, 4 mM reducing agent. Typically, the 4 flow cells of the sensor chips were used as follows: flow cell 1 served as a reference and was activated and deactivated. […]
To test binding of reducing agents in the absence of small molecules, the reducing agents were diluted and injected in buffer without reducing agents for 180 sec and a dissociation phase of 600 sec. […] The time-dependent binding curves were monitored simultaneously. […]
Kinetic and affinity data were solvent corrected (fragments only), reference subtracted and blank subtracted using the Biacore T200 evaluation software V.1. Kinetic constants were determined by curve fitting using a 1∶1 binding model. […] The rate of complex formation (1∶1 interaction) during fragment injection was calculated according to the equation (2): [drawing 2] […] Data were simultaneously fitted by the software and the dissociation constant KD calculated using equation (3). […]

FL-FLAG Parkin [2] = biological target: T3, FL-FLAG Parkin (Homo sapiens, UniProt O60260); assay: S5a ubiquitination HTRF (TR-FRET) assay; format: biochemical; conditions: Parkin heated at 56°C in presence of reducing agent; DTT at optimal 5–10 mM
T3 construct: the entire coding region (residues 1–465) from NM_004562.1 was cloned into pFastBac; made in house; host or cells: Sf9 or Sf21 insect cells (baculovirus)
T3 sequence (O60260 1-465): T1 sequence (O60260 1-465)
Protocol: FL FLAG-Parkin (35 μM stock) was thermally treated by incubating at 56°C for 30 min. The thermally treated FL FLAG-Parkin stock was stored at −80 C. 5 μl of thermally treated or non-treated FLAG-Parkin diluted in assay buffer was added to wells of a 384-well non-binding plate. […] The reaction was allowed to proceed for 120 min at 30°C. 10 μl of stop-detection mix was added to a final concentration of 75 nM streptavidin XL665 conjugate, 12 mM EDTA in buffer containing 100 mM Na2HPO4 pH 7.0, 300 mM KF, and 0.1% BSA. The 20 μl reaction mixture was incubated for 60 min at room temperature. HTRF read using a LJL Analyst plate reader (Molecular Devices) at excitation 320 nm and emission 665 nm & 615 nm.

[3] = biological target: T4, FL-FLAG-Parkin 56°C (thermal treated) (Homo sapiens, UniProt O60260); assay: SPR kinetics/affinity on thermal treated FL-FLAG Parkin captured by anti-FLAG antibody; format: binding
T4 construct: the entire coding region (residues 1–465) from NM_004562.1 was cloned into pFastBac; made in house; host or cells: Sf9 or Sf21 insect cells (baculovirus)
T4 sequence (O60260 1-465): T1 sequence (O60260 1-465)
Protocol: Kinetics and Affinity measurements were performed on a GE Healthcare Biacore T100 or T200 instrument. Anti-FLAG antibody M2 was immobilized on a CM5 sensor chip using standard amine coupling procedure at a concentration of 100 μg/ml to a level of 10000 response units (RU). […] The running buffer for both methods was 10 mM HEPES pH 7.4, 150 mM NaCl, 0.005% Tween-20, 4 mM reducing agent. […] Flow cell 2 contained antibody only to control for non-specific binding of fragments to the antibody, and flow cells 3 and 4 contained antibody and captured Parkin. Untagged Parkin domain R0RBR was immobilized by amine coupling at a concentration of 100 μg/ml in 10 mM acetic acid pH 5.0 using the same running buffer as for anti-FLAG antibody immobilization. The surface was then washed with 10 mM HEPES pH 7.4, 150 mM NaCl, 0.005% Tween-20, 4 mM reducing agent for at least one hour.
as §1
as §2, with “(2) where R is the SPR signal in response units (RU), C is the concentration of analyte, Rmax is the maximum analyte binding capacity in RU, dR/dt is the rate of SPR signal change. To determine the association constant ka between fragment and protein, the early binding phase was used.” left out, “[drawing 3]” left out, “(4) where Nh is the number of heavy (i.e., non-hydrogen) atoms in the ligand.” left out
The dissociation half-life (t1/2) was calculated by equation (5). […]

FL-FLAG Parkin [4] = biological target: T3, FL-FLAG Parkin; assay: STD NMR binding to FL-FLAG-Parkin; conditions: 4 µM FL Parkin, 0.5 mM DTT, 0.25 mM compound Z, signal at 2.6 ppm
Protocol: All NMR experiments were conducted at 15°C on a Bruker Avance 700 MHz spectrometer equipped with a 5 mm TCI cryo-probe. 3 mm NMR tubes were used for reducing the protein consumption. […] The compound concentration was 0.25 mM. […] The Mnova 7.0 (Mestrelab Research) was used in data analysis.

[5] = SPR, 50 mM HEPES pH 8.8, 0.005% Tween-20, 0.01% PF-127, no other reducing agent

dissociation at a fast rate (kd), time ([1]; SPR, protein ligand)	Kd (R0RBR Domain RT)	direct binding of reducing agent by SPR [1]	direct binding of reducing agent by SPR [3]	Kd [1, 5]	affinity (KD) of reducing agent [1, 5]	Rmax ([1]; SPR, same run as the KD of DTT)	binding activity % Rmax ([1]; SPR, same run as the KD of DTT)	dissociation half-life ([1]; calculated from the dissociation rate kd)	DTT binding in STD spectrum (FL-FLAG Parkin [4])	Molecule	improvement of Parkin S5a ubiquitination activity (FL-FLAG Parkin [2])
30 s	7.1 µM	–	–	–	–	–	–	–	–	UbcH7: Ubiquitin conjugating enzyme E2, non-tagged, purified in house	–
–	–	did not exhibit any binding	did not exhibit any binding	–	–	–	–	–	–	OCCS [BME, β-mercaptoethanol]	up to 2.5 fold
–	–	showed binding	showed binding	1.4 µM	low micro-molar affinity	34 RU	47 % Rmax	28.95 min	binding was evident	O[C@@H](CS)[C@@H](O)CS (racemic) [DTT, Dithiothreitol]	–

Molecule	dissociation at a fast rate (kd), time ([1]; SPR, protein ligand)	Kd (R0RBR Domain RT)	direct binding of reducing agent by SPR [1]	direct binding of reducing agent by SPR [3]	Kd [1, 5]	affinity (KD) of reducing agent [1, 5]	Rmax ([1]; SPR, same run as the KD of DTT)	binding activity % Rmax ([1]; SPR, same run as the KD of DTT)	dissociation half-life ([1]; calculated from the dissociation rate kd)	DTT binding in STD spectrum (FL-FLAG Parkin [4])	improvement of Parkin S5a ubiquitination activity (FL-FLAG Parkin [2])
O=C(O)CCP(CCC(=O)O)CCC(=O)O [TCEP]	–	–	did not exhibit any binding	did not exhibit any binding	–	–	–	–	–	–	up to 2.5 fold
